Experimental data taken from patent US6878388B1, “Vanadium compounds for treating proliferative cell disorders” (Parker Hughes Institute, priority 2000, dated 2005).

How the values were obtained:
[1] = test system: MDA-MB-231 breast cancer cells; test: MTT cytotoxicity assay, MDA-MB-231; assay type: cell-based, human; details: MDA-MB-231 cells, 48 h incubation, 3 independent experiments, read-out: IC50 (mean ± SE)
Description: (§1) Human brain tumor cells lines U87 MG (Cat.# HTB-14), U118 MG (Cat. # HTB-15), U138 (Cat # HTB-16), U373 MG (CAT. # HTB-17), and T98G (Cat. # CRL-1690) and breast cancer cell lines BT-20 (Cat # HTB-19), MDA-MB-231 (Cat # HTB-26), MDA-MB-361 (Cat # HTB-27), and MCF-7 (Cat # HTB-22) were obtained from American Type Culture Collection (ATCC, Rockville, Md.) and maintained as continuous cell lines in Dulbecco's modified Eagles's medium (U87, U118, U138, U373, T98 and BT-20) or Leibovitz's L-15 medium (MDA-MB-231 and MDA-MB-361). All media were supplemented with 10% fetal calf serum (FCS), 4 mM glutamine, 100 U/ml penicillin G and […] streptomycin sulfate. All tissue culture reagents were obtained from Life Technologies Inc. (GIBCO-BRL, Gaithersburg, Md.).
(§2) The cytotoxicity of [VO(SO4)(Me2-Phen)2] against human cancer cell lines was analyzed using the MTT (3-[4,5-dimethylthiazol-2-yl]-2,5-diphenyl tetrazolium bromide) assay (Boehringer Mannheim Corp., Indianapolis, Ind.) as described previously (Narla et al., Clin Cancer Res., 4: 1405-1414, 1998). […] The absorbance at 540 nm (a reference wavelength of 690 nm was used) of the solution in each well was measured using a microplate reader (Labsystems). The percent survival and the IC50 values were calculated using Graphpad Prism v2.0 (Graphpad Software, Inc., San Diego, Calif.) as described previously (Narla et al., Supra). […]

U87 cells = test: In vitro invasion assay, Matrigel-coated Boyden chambers, U87; assay type: cell-based, human; details: 24 h preincubation, 3 experiments, read-out: Mean IC50 inhibition of invasion through Matrigel matrix
Description: Tumor invasion of the basement membrane is a crucial step in the complex multistage process that leads to metastatic spread. Tumor cells cross the basement membrane as they initially invade the lymphatic or vascular beds during dissemination and as they penetrate their target tissues. […]
Invasion of cancer cells treated with [VO(SO4)(Me2-Phen)2] was assayed using Matrigel-coated Costar 24-well transwell cell culture chambers (“Boyden chambers”) with 8.0-μm-pore polycarbonate filter inserts as described previously (Narla et al., Clin Cancer Res, 4: 2463-2471, 1998; Ghosh et al., Anticancer Drug Des, 14: 403-410, 1999; Albini et al., J Cell Biol, 105: 1867-1872, 1987). […] The cells were trypsinized, washed twice with serum-free medium containing BSA, counted and resuspended in a serum-free medium at 1×10^5 cells/ml. […] The invasive cells that migrated to the lower side of the filter were fixed, stained with Hema-3 solution and counted under a light microscope. Five to 10 random fields per filter were counted to determine the invasive fraction. The invasive fractions of cells treated with [VO(SO4)(Me2-Phen)2] were compared to those of DMSO-treated control cells and the percent inhibition of invasiveness was determined. […]

[2] = test system: U87 human glioblastoma cells; test: MTT cytotoxicity assay, U87; assay type: cell-based; details: 48 h incubation, 3 independent experiments, read-out: IC50 (mean ± SE)
Description: as §1, §2

Cc1ccnc2c1ccc1c(C)ccnc12.Cc1ccnc2c1ccc1c(C)ccnc12.O=S(=O)([O-])[O-].[O]=[V+2] [[VO(SO4)(Me2-Phen)2], bis(4,7-dimethyl-1,10-phenanthroline) sulfatooxovanadium (IV)]
IC50 [1]: 500 ± 100 nM | IC50 (U87 cells): 780 ± 400 nM | IC50 [2]: 2100 ± 600 nM
